This is an account of results in patent publication US20240164380A1, “ANTIFUNGAL COMPOSITIONS AND METHODS FOR THEIR USE” (Texas Crop Science, Inc., priority 2022, published 2024).

For experiment [1], the system named is apyrase. Put plainly: In vitro apyrase assay (screen for apyrase inhibitors). The note with it: inhibitor conc at 1 mM, 1 hr at room temperature, absorbance @630 nm. In kind it is biochemical. Here is the method: Method 1: In Vitro Apyrase Assay:
The apyrase inhibitory activity was assessed using an in vitro assay. The method of Windsor, Bio Techniques 33:1024-1030 (November 2002) was used as follows:
96 well plates were used for the assay: (Greiner bio-one: REF-655901- 96 well, PS, F-bottom, Clear, Non-binding)
Reaction Buffer: 60 mM Hepes; 3 mM MgCl2, 3 mM CaCl2 and 3 mM ATP (pH 6.5)
Development Buffer A: 2% aqueous ammonium molybdate
Development Buffer B: 11% ascorbic acid in 37.5% TCA in water
Stop buffer C: 2% trisodium citrate in 2% acetic acid solution in water • Add 100 μl of reaction buffer to each well. • Add 10 μl of DMSO (control) or inhibitor/compound or compounds such as N1915 or orthovanadate to each well. (use inhibitor conc at 1 mM; orthovanadate at 2 mM and N1915 at 1 mM) • Add 10 μl of apyrase (concentration based on optimization—Dilute 1 U/μl enzyme to different concentrations such as 0.1 U, 0.05 U, 0.0025, 0.001 U, 0.0005 U—to find a good range) • Incubate plate at room temperature for 1 hr • Mix development buffer A and B in the ratio of 1:1.5 (just before use). • Add 50 ul of A:B mix in each well (incubate for 2 mins) • Add 50 ul of C in each well • Measure/Read Absorbance of plate @630 nm Compound 1 inhibited inhibited apyrase in this assay at about 60%. : […]

The test system of experiment [2] is plant pathogenic fungi. Nature of the experiment: Crop trials of fungicides with and without the enhancer compound (FIGS. 1-8). The settings on record: soy, wheat and grape crops. In kind it is in vivo. The text has this:
FIG. 1 illustrates Asian soybean rust severity in untreated crop (UTC) versus soy treated with azoxystrobin, chlorothalonil, tebuconazole or azoxystrobin and tebuconazole with and without the present enhancer compound (TX 15) at 1, 7, 9, 14 and 16 days after application (DAA).
FIG. 2 illustrates frogeye leaf spot intensity of infection in soy in untreated crop (UTC) versus soy treated with azoxystrobin, chlorothalonil, tebuconazole or azoxystrobin and tebuconazole with and without the present enhancer compound (TX15) at 4, 11 and 18 (two trials) days after application (DAA).
FIG. 3 illustrates yellow rust foliar infection percentage of wheat in untreated crop (UTC) versus wheat with preventive application of AMISTAR® (azoxystrobin), folpet, PROLINE® (prothioconazole), REVYSTAR® (fluxapyroxad and mefentrifluconazole), A20944 (prothioconazole and pydiflumetofen), ELATUS® ERA (prothioconazole and benzovindiflupyr), A21857 (ADEPIDYN®; pydiflumetofen), INATREQ® (fenpicoxamid) with and without the present enhancer compound (TX 15). […]
FIG. 7 illustrates the severity of downy mildew attack on grape crops assessed as to bunches and leaves in untreated crop (UTC) versus crop treated with cyazofamid or cyazofamid and the present enhancer compound (TX 15). […]

For experiment [3], the system named is Zymoseptoria tritici (Septoria tritici). Nature of the experiment: Greenhouse crop test of Compound 1 with metconazole on winter wheat. In kind it is in vivo. The settings on record: winter wheat infected with Z. tritici, preventative spray 1 d before inoculation, FIG. 9.
Protocol: A 2019 field isolate of Zymoseptoria tritici (Septoria tritici) was grown on potato dextrose agar (PDA), amended with penicillin and streptomycin, to eliminate possible bacterial contamination, for 6 d at 20° C.
Spore suspensions were made by flooding the plates with sterile distilled water and scraping gently. The spore suspensions were adjusted to 10^6 conidia mL^−1, by haemocytometer counts and appropriate dilution, before final re-suspension in potato dextrose broth, amended with 1.5 g L^−1 gelatin and 0.5 g L^−1 sodium oleate.
Septoria-susceptible winter wheat cv Trinity was planted in Levington M3 compost. Seeds (12-15 per pot) were planted per 9 cm pot and grown to growth stage 12. Plants were accommodated in a glasshouse with day heating to 20° C., venting at 22° C., and night heating to maintain 15° C. Plants were inoculated with Z. tritici by spraying spore suspensions at 10^6 spores ml^−1 to just before run-off. Three replicate pots were used per treatment. The plants were placed in sealed, transparent propagators for 72 hours, to maintain high relative humidity and to ensure free water remained on leaves. […] Preventative fungicide sprays were made 1 d before inoculation. Treatments were randomised within the glasshouse. All fungicides were applied at the equivalent rate of 200 L water per hectare, using a calibrated pressurised hand-held sprayer. […]

Consider `C/C(=N\NC(=O)c1cccc(C)c1)c1ccc2ccccc2c1` [Compound 1, (E)-3-methyl-N′-(1-(naphthalen-2-yl)ethylidene)benzohydrazide], for which, in experiment [1], the inhibited apyrase entry was “about 60%”. In addition, in experiment [2], the “fungal growth in combination with exemplary fungicides” value is listed as “dramatically reduces fungal growth”.
As to `CC1(C)CCC(Cc2ccc(Cl)cc2)C1(O)Cn1cncn1` (stereo not drawn) [metconazole], the “effect of combining Compound 1 (TX15) with the fungicide” value in experiment [3] is on record as “synergistic effect”.
